In ChEMBL document CHEMBL1240408, “Turning enzymes ON with small molecules” (Nat Chem Biol, 2010):
Each block holds one compound with its values, some of them ahead of it.

Assays:
[1] = (§1) Activation of rat liver AMPK assessed as concentration required to induce 50 % activity
Rattus norvegicus [2] = species: Rattus norvegicus; test: as §1
Rattus norvegicus [3] = species: Rattus norvegicus; test: Activation of rat liver AMPK relative to basal activity level; assay type: tissue-based
Rattus norvegicus [4] = species: Rattus norvegicus; test: Activation of rat liver AMPK alpha subunit assessed as concentration required to induce 50 % activity
Caspase-3 (Homo sapiens) = molecular target: T1, Caspase-3 (Homo sapiens) (UniProt P42574); test: Induction of autoactivation of procaspase-3 relative to control
T1 sequence (whole entry): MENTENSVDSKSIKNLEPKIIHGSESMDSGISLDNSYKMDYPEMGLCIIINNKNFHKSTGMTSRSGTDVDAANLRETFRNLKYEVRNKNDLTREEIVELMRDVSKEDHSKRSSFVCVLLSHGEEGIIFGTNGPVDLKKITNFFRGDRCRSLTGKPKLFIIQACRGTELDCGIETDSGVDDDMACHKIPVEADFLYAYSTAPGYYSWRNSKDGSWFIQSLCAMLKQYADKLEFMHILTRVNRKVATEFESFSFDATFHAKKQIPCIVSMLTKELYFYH

SMILES: Nc1ncnc2c1ncn2[C@@H]1O[C@H](COP(=O)(O)O)[C@@H](O)[C@H]1O [ADENOSINE PHOSPHATE]
AC50 [1]: 56 µM

Activity (Rattus norvegicus [2]): 0.3 µM
Activity (Rattus norvegicus [4]): 8 µM
SMILES: Cc1cc(-c2ccc(/C=C3\S/C(=N\c4ccc(Cl)c(C(=O)O)c4)NC3=O)o2)c([N+](=O)[O-])cc1C
fold change (FC) (Rattus norvegicus [3]): 1.5

Activity (Rattus norvegicus [2]): 0.8 µM
SMILES: N#Cc1c(O)c2c(-c3ccc(-c4ccccc4O)cc3)csc2[nH]c1=O

fold change (FC) (Caspase-3 (Homo sapiens)): 3
SMILES: C=CCc1cccc(/C=N/NC(=O)CN2CCN(Cc3ccccc3)CC2)c1O
